Experimental data: patent US6616919B2, “Dibenzoylmethane sunscreen compositions containing photostabilizing amounts of tri-substituted butane compounds” (Societe l'Oreal S.A., priority 2001, dated 2003)

What was measured:
Type in all cases: physicochemical
[1] = Photostability of butylmethoxydibenzoylmethane in Support 1 formulations, xenon lamp exposure, UV spectrometry (Example 1); conditions: Support 1, 2% butylmethoxydibenzoylmethane, X = 0% by weight (no 1,1,1-tris(2-methyl-4-hydroxy-5-tert-butylphenyl)butane); ratio of exposed to unexposed OD
Experimental: The photostability of the dibenzoylmethane compound was evaluated on several formulations in which the amount of 1,1,1-tris(2-methyl-4-hydroxy-5-tert-butylphenyl)butane (X) was varied. The support common to these formulations was as follows: [table] For each formula, 3 test samples and 3 control samples were prepared. 2 mg/cm^2 of formula were deposited by spatula onto polymethyl methacrylate plates. […], to a Sun Test Heraus machine equipped with a xenon lamp and having as UV-A illumination: 3.02×10^−3 W/cm^2, and as UV-B illumination: 2.1×10^−4 W/cm^2, and the control plates were maintained for the same time and at the same temperature (38-40° C.) in darkness. After this time, the screening agents were extracted by immersing each plate in 50 g of ethanol and subjecting them to ultrasound for 15 minutes to ensure good extraction. The solutions obtained were analyzed by UV spectrometry. For each test formula, the amount of residual butylmethoxydibenzoylmethane after exposure is given as the ratio of its optical density (OD) in the exposed sample to its unexposed optical density (OD). […]

[2] = Photostability of butylmethoxydibenzoylmethane in Support 2 formulations containing octyltriazone, xenon lamp exposure, UV spectrometry (Example 2); conditions: Support 2, 0.5% butylmethoxydibenzoylmethane + 1.5% Uvinul T150, X = 0% by weight (no stabilizer)
Experimental: (§1) The photostability of octyltriazone in the presence of butylmethoxydibenzoylmethane was examined on several formulations in which the amount of 1,1,1-tris(2-methyl-4-hydroxy-5-tert-butylphenyl)butane (X) was varied. The support common to these formulations was as follows: [table] For each formula, 3 test samples and 3 control samples were prepared. 2 mg/cm^2 of formula were deposited by spatula onto polymethyl methacrylate plates. […], to a Sun Test Heraus machine equipped with a xenon lamp and having as UV-A illumination: 3.02×10^−3 W/cm^2, and as UV-B illumination: 2.1×10^−4 W/cm^2, and the control plates were maintained for the same time and at the same temperature (38-40° C.) in darkness. After this time, the screening agents were extracted by immersing each plate in 50 g of ethanol and subjecting them to ultrasound for 15 minutes to ensure good extraction. The solutions obtained were analyzed by UV spectrometry. For each test formula, the amount of residual butylmethoxydibenzoylmethane and the residual amount of octyltriazone after exposure is given as the ratio of each respective optical density (OD) in the exposed sample to the unexposed optical density (OD) corresponding to each filter. The machine was set at the maximum absorption corresponding to each filter: Butylmethoxydibenzoylmethane: λmax=358 nm

[3] = Photostability of octyltriazone in the presence of butylmethoxydibenzoylmethane in Support 2 formulations, xenon lamp exposure, UV spectrometry (Example 2); conditions: Support 2, 0.5% butylmethoxydibenzoylmethane + 1.5% Uvinul T150, X = 0% by weight (no stabilizer)
Experimental: as §1, with “Octyltriazone: λmax=312” for “Butylmethoxydibenzoylmethane: λmax=358”

| Residual OD at 358 nm after 1 hour of UVA irradiation [1] [%] | Residual OD of the dibenzoylmethane at 358 nm after 1 hour of UVA irradiation [2] [%] | Residual OD of the triazine at 312 nm after 1 hour of UVA irradiation [3] [%] | Structure (SMILES) |
| --- | --- | --- | --- |
| 11 ± 1 | 32 ± 4 | – | COc1ccc(C(=O)CC(=O)c2ccc(C(C)(C)C)cc2)cc1 [butylmethoxydibenzoylmethane, 4-(tert-butyl)-4′-methoxydibenzoylmethane] |
| – | – | 87 ± 13 | CCCCC(CC)COC(=O)c1ccc(Nc2nc(Nc3ccc(C(=O)OCC(CC)CCCC)cc3)nc(Nc3ccc(C(=O)OCC(CC)CCCC)cc3)n2)cc1 (stereo not drawn) [octyltriazone, 2,4,6-tris[p-(2′-ethylhexyl-1′-oxycarbonyl)anilino]-1,3,5-triazine] |
